The values below come from publication PMC11879280, “Antimicrobial activity of peptoids against Metallo-β-lactamase-producing Klebsiella pneumoniae, Acinetobacter baumannii, Pseudomonas aeruginosa, and other WHO priority pathogens, including Candida auris” (Journal of Applied Microbiology, 2025).

One test deals with E. coli 0010. The conditions noted are these: E. coli 0010; CAMHB, 37°C, 16–20 h. How it is done: (§1) Briefly, bacteria were suspended in cation-adjusted Mueller–Hinton broth (CAMHB; Oxoid, UK) for antibiotics, or MHB (Oxoid, UK) for peptidomimetics to obtain 5 × 10^5 colony forming unit (CFU) ml^−1. […] Positive controls contained only microbes, and blanks contained only media. Microbial suspensions (100 µl) were added to wells, plates wrapped, and incubated at 37°C, 120 rpm for 16–20 h. After incubation, suspensions were removed, log10 diluted, and plated on Trypticase Soya Agar with phosphatidylcholine and Tween 80 to determine minimum bactericidal or fungicidal concentration (MBC or MFC). […] Geometric mean MIC of the peptoids were calculated to evaluate the broad overview of antimicrobial activity across the pathogens.

The next test relates to P. aeruginosa AR-1270. The conditions noted are these: P. aeruginosa AR-1270; CAMHB, 37°C, 16–20 h. How it is done:
as §1

For the next test, the system named is E. coli 0015. The settings on record: E. coli 0015; CAMHB, 37°C, 16–20 h. How it is done: as §1
The subject of the next test is E. coli 0011. The settings on record: E. coli 0011; CAMHB, 37°C, 16–20 h. How it is done: as §1
Test [1] relates to K. pneumoniae JIE2713. The settings on record: K. pneumoniae JIE2713; CAMHB, 37°C, 16–20 h. The method, then:
as §1

For test [2], the system named is K. pneumoniae JIE2709. The conditions noted are these: K. pneumoniae JIE2709; CAMHB, 37°C, 16–20 h. The method, then:
as §1

A further test has as its system E. coli 005. The settings on record: E. coli 005; CAMHB, 37°C, 16–20 h. How it is done:
as §1

The subject of a further test is En. cloacae 003. The conditions noted are these: En. cloacae 003; CAMHB, 37°C, 16–20 h. The method, then:
as §1

The next test deals with P. aeruginosa 216. The conditions noted are these: P. aeruginosa 216; CAMHB, 37°C, 16–20 h. The method, then: as §1
Another test has as its system En. cloacae 005. The conditions noted are these: En. cloacae 005; CAMHB, 37°C, 16–20 h. The method, then:
as §1

The subject of the next test is K. pneumoniae JIE4212. The conditions noted are these: K. pneumoniae JIE4212; CAMHB, 37°C, 16–20 h. The method, then: as §1
For another test, the system named is P. aeruginosa 33. The conditions noted are these: P. aeruginosa 33; CAMHB, 37°C, 16–20 h. The method, then: as §1
A further test deals with En. cloacae 001. The conditions noted are these: En. cloacae 001; CAMHB, 37°C, 16–20 h. The method, then:
as §1

Test [3] has as its system K. pneumoniae JIE2713. Kind of test: Checkerboard microdilution synergy test. The conditions noted are these: for MIC: Klebsiella pneumoniae, read-out: MIC of DrugB (alone, checkerboard); for FICDrugB / MF of antibiotic (modulation factor) / MIC of DrugB + TM8: in combination with TM8. In kind it is cell-based, Klebsiella pneumoniae. The method, then:
(§2) Then, 10 µl of bacteria (5 × 10^6 CFU ml^−1) or C. auris (2.5 × 10^4 CFU ml^−1) were added to each well, except for the sterility control well. […] The sterility control wells contained only MHB (or RPMI in case of C. auris), and the growth control contained 110 µl of microbial inoculum with no antimicrobials. Subsequently, the plates were incubated for 18- 24 hours at 36 ± 1 °C.
(§3) The FIC for each combination interaction was calculated as follows:
(§4) Then, the summation of FIC (ƩFIC) was calculated for each antimicrobial combination as follows: ƩFIC = FICA + FICB. […] All antimicrobial synergy experiments were repeated in at least two independent runs.

The test system of the next test is A. baumannii 006. The conditions noted are these: A. baumannii 006; CAMHB, 37°C, 16–20 h. How it is done:
as §1

A further test concerns A. baumannii 007. The conditions noted are these: A. baumannii 007; CAMHB, 37°C, 16–20 h. How it is done: as §1
In the next test the test system is A. baumannii ATCC 19 606. The settings on record: A. baumannii ATCC 19 606; CAMHB, 37°C, 16–20 h. The method, then: as §1
In a further test the test system is A. baumannii 005. The settings on record: A. baumannii 005; CAMHB, 37°C, 16–20 h. How it is done:
as §1

The subject of a further test is A. baumannii 008. The conditions noted are these: A. baumannii 008; CAMHB, 37°C, 16–20 h. How it is done:
as §1

The subject of test [4] is K. pneumoniae JIE2709. Kind of test: Checkerboard microdilution synergy test. In kind it is cell-based, Klebsiella pneumoniae. How it is done:
as §2, §3, §4

In the case of `C[C@H]1[C@H](NC(=O)/C(=N\OC(C)(C)C(=O)O)c2csc(N)n2)C(=O)N1S(=O)(=O)O` [Azt, aztreonam, reference compound], the MIC of antibiotics in the test on E. coli 0010 was 2 µg/mL; in the test with P. aeruginosa AR-1270 it was more than 128 µg/mL; with E. coli 0015, 0.5 µg/mL; in the test on E. coli 0011, 4 µg/mL; in the test on K. pneumoniae JIE2713 [1], 128 µg/mL; in the test with K. pneumoniae JIE2709 [2], more than 128 µg/mL. The MIC of antibiotics with E. coli 005 is 0.5 µg/mL; in the test on En. cloacae 003, 4 µg/mL; in the test on P. aeruginosa 216, 4 µg/mL; in the test with En. cloacae 005, 16 µg/mL; in the test on K. pneumoniae JIE4212, more than 128 µg/mL; in the test on P. aeruginosa 33 it was 128 µg/mL. The MIC of antibiotics with En. cloacae 001 was determined as 4 µg/mL. Further, the MIC with K. pneumoniae JIE2713 [3] came out at 128 µg/mL. In addition, in the test on K. pneumoniae JIE2713 [3], the FICDrugB was 0.5. For the same compound, in the test on K. pneumoniae JIE2713 [3], the “MF of antibiotic (modulation factor)” value was found to be 2. Further, the “MIC of DrugB + TM8” value with K. pneumoniae JIE2713 [3] came to 64 µg/mL.
In the case of `CC(C)(O/N=C(\C(=O)N[C@@H]1C(=O)N2C(C(=O)[O-])=C(C[n+]3ccccc3)CS[C@H]12)c1csc(N)n1)C(=O)O` [Cefaz, ceftazidime, reference compound], the MIC of antibiotics is 2 µg/mL with E. coli 0010; more than 512 µg/mL with P. aeruginosa AR-1270; 512 µg/mL in the test on A. baumannii 006; 0.5 µg/mL in the test with E. coli 0015; 512 µg/mL in the test on A. baumannii 007; 4 µg/mL in the test on E. coli 0011. Moreover, the MIC of antibiotics is more than 512 µg/mL in the test with K. pneumoniae JIE2713 [1]; 32 µg/mL with K. pneumoniae JIE2709 [2]; 0.25 µg/mL in the test with E. coli 005; 4 µg/mL in the test on En. cloacae 003; 2 µg/mL with P. aeruginosa 216; 8 µg/mL with A. baumannii ATCC 19 606. Besides, the MIC of antibiotics with A. baumannii 005 was 512 µg/mL; with En. cloacae 005 it was 128 µg/mL; with K. pneumoniae JIE4212, more than 512 µg/mL; with P. aeruginosa 33, 32 µg/mL; in the test with A. baumannii 008, 512 µg/mL; with En. cloacae 001 it was 4 µg/mL.
`CO/N=C(\C(=O)N[C@@H]1C(=O)N2C(C(=O)O)=C(COC(C)=O)CS[C@H]12)c1csc(N)n1` [Cefot, cefotaxime, reference compound]: the MIC of antibiotics is 2 µg/mL in the test with E. coli 0010; 512 µg/mL in the test on A. baumannii 006; 0.5 µg/mL with E. coli 0015; 512 µg/mL in the test with A. baumannii 007; 4 µg/mL with E. coli 0011; more than 512 µg/mL in the test with K. pneumoniae JIE2713 [1]. For the same compound, the MIC of antibiotics with K. pneumoniae JIE2709 [2] was 32 µg/mL; in the test on E. coli 005, 0.25 µg/mL; in the test with En. cloacae 003, 8 µg/mL; in the test with A. baumannii ATCC 19 606, 8 µg/mL; in the test with A. baumannii 005, 512 µg/mL; in the test with En. cloacae 005, 128 µg/mL. Besides, the MIC of antibiotics in the test on K. pneumoniae JIE4212 was more than 512 µg/mL; in the test with A. baumannii 008 it was 512 µg/mL; in the test with En. cloacae 001, 4 µg/mL. Moreover, the minimum inhibitory concentration (MIC) is 1020 µg/mL with K. pneumoniae JIE2713 [3] and 32 µg/mL in the test with K. pneumoniae JIE2709 [4] (Klebsiella pneumoniae, read-out: MIC of DrugB (alone, checkerboard)). Besides, the FICDrugB in the test on K. pneumoniae JIE2713 [3] and in the test on K. pneumoniae JIE2709 [4] (in combination with TM8) was 0.5 each time. Moreover, the “MF of antibiotic (modulation factor)” value with K. pneumoniae JIE2713 [3] and in the test on K. pneumoniae JIE2709 [4] (in combination with TM8) was 2 each time. For the same compound, the entries for the “MIC of DrugB + TM8” value with K. pneumoniae JIE2713 [3] and in the test with K. pneumoniae JIE2709 [4] (in combination with TM8) were 512 µg/mL and 16 µg/mL, respectively.
As to `O=C(O)c1cn(C2CC2)c2cc(N3CCNCC3)c(F)cc2c1=O` [Cip, ciprofloxacin], in the test on K. pneumoniae JIE2713 [3], the FICDrugB is on record as 0.023, the “MF of antibiotic (modulation factor)” value is 4 and the “MIC of DrugB + TM8” value worked out at 32 µg/mL. In addition, in the test on K. pneumoniae JIE2709 [4] (in combination with TM8), the FICDrugB was 0.5 and the “MF of antibiotic (modulation factor)” value was 2.
Turning to `CNC(C)C1CCC(N)C(OC2C(N)CC(N)C(OC3OCC(C)(O)C(NC)C3O)C2O)O1` (stereo not drawn) [Gen, gentamicin, reference compound], the MIC of antibiotics is 0.25 µg/mL in the test on E. coli 0010; more than 128 µg/mL in the test on P. aeruginosa AR-1270; more than 128 µg/mL in the test with A. baumannii 006; 0.5 µg/mL in the test with E. coli 0015; more than 128 µg/mL in the test with A. baumannii 007; 0.5 µg/mL in the test on E. coli 0011. The MIC of antibiotics with K. pneumoniae JIE2713 [1] is more than 128 µg/mL; with K. pneumoniae JIE2709 [2], 0.5 µg/mL; in the test with E. coli 005, 0.25 µg/mL; in the test with En. cloacae 003, 0.5 µg/mL; with A. baumannii ATCC 19 606, 4 µg/mL; in the test with A. baumannii 005, more than 128 µg/mL. The MIC of antibiotics was 0.25 µg/mL in the test on En. cloacae 005; 128 µg/mL in the test on K. pneumoniae JIE4212; more than 128 µg/mL in the test with P. aeruginosa 33; more than 128 µg/mL in the test with A. baumannii 008; 4 µg/mL in the test on En. cloacae 001. Besides, the MIC in the test with K. pneumoniae JIE2713 [3] came to 1020 µg/mL. Besides, in the test with K. pneumoniae JIE2713 [3], the FICDrugB turned out to be 0.5. Moreover, the “MF of antibiotic (modulation factor)” value with K. pneumoniae JIE2713 [3] is 2. For the same compound, the “MIC of DrugB + TM8” value in the test on K. pneumoniae JIE2713 [3] came out at 512 µg/mL.
As to colistin sulfate [reference compound], the MIC of antibiotics in the test on E. coli 0010 was 2 µg/mL; in the test on P. aeruginosa AR-1270 it was 1 µg/mL; in the test with A. baumannii 006, 0.25 µg/mL; in the test on E. coli 0015, 0.25 µg/mL; in the test with A. baumannii 007 it was 1 µg/mL; with E. coli 0011 it was 2 µg/mL. Besides, the MIC of antibiotics was 1 µg/mL with K. pneumoniae JIE2713 [1]; 1 µg/mL in the test on K. pneumoniae JIE2709 [2]; 0.25 µg/mL in the test with E. coli 005; 1 µg/mL in the test on En. cloacae 003; 16 µg/mL in the test with P. aeruginosa 216; 2 µg/mL in the test on A. baumannii ATCC 19 606. In addition, the MIC of antibiotics is 0.25 µg/mL in the test with A. baumannii 005; 2 µg/mL in the test with En. cloacae 005; 1 µg/mL in the test with K. pneumoniae JIE4212; 1 µg/mL in the test with P. aeruginosa 33; 1 µg/mL with A. baumannii 008; 2 µg/mL in the test with En. cloacae 001.
Take polymyxin B [PmB, reference compound]: the MIC of antibiotics in the test on E. coli 0010 stood at 2 µg/mL; in the test on P. aeruginosa AR-1270, 2 µg/mL; with A. baumannii 006, 0.25 µg/mL; with E. coli 0015 it was 0.25 µg/mL; with A. baumannii 007, 1 µg/mL; with E. coli 0011, 2 µg/mL. Also, the MIC of antibiotics is 1 µg/mL in the test with K. pneumoniae JIE2713 [1]; 1 µg/mL in the test on K. pneumoniae JIE2709 [2]; 0.25 µg/mL in the test with E. coli 005; 1 µg/mL with En. cloacae 003; 16 µg/mL in the test on P. aeruginosa 216; 2 µg/mL in the test on A. baumannii ATCC 19 606. Moreover, the MIC of antibiotics was 0.25 µg/mL in the test with A. baumannii 005; 2 µg/mL with En. cloacae 005; 1 µg/mL in the test with K. pneumoniae JIE4212; 2 µg/mL with P. aeruginosa 33; 1 µg/mL with A. baumannii 008; 2 µg/mL in the test on En. cloacae 001.
